Values after ≈ are worked out from the molar mass of the structure shown.
Tests used:
Streptococcus pneumoniae [1] = assay: Antibacterial activity against erythromycin-resistant Streptococcus pneumoniae B1 encoded by erm gene
Streptococcus pneumoniae [2] = assay: Antibacterial activity against erythromycin-resistant Streptococcus pneumoniae A22072 encoded by mef gene
Streptococcus pneumoniae [3] = assay: Antibacterial activity against erythromycin-susceptible Streptococcus pneumoniae ATCC 49619
Streptococcus pneumoniae [4] = assay: Antibacterial activity against erythromycin-resistant Streptococcus pneumoniae AB11 encoded by erm and mef gene

Compound	MIC (Streptococcus pneumoniae [1]) [µg/mL]	MIC (Streptococcus pneumoniae [2]) [µg/mL]	MIC (Streptococcus pneumoniae [3]) [µg/mL]	MIC (Streptococcus pneumoniae [4]) [µg/mL]
CC[C@H]1OC(=O)[C@H](C)[C@@H](O[C@H]2C[C@@](C)(OC)[C@@H](OC(=O)NCc3ccc(OC)cc3)[C@H](C)O2)[C@H](C)[C@@H](O[C@@H]2O[C@H](C)C[C@H](N(C)C)[C@H]2O)[C@@](C)(O)C[C@@H](C)CN(C)[C@H](C)[C@@H](O)[C@]1(C)O	64 (≈ 70.2 µM)	4 (≈ 4.39 µM)	0.12 (≈ 0.132 µM)	32 (≈ 35.1 µM)
CC[C@H]1OC(=O)[C@H](C)[C@@H](O[C@H]2C[C@@](C)(OC)[C@@H](OC(=O)NCc3ccc(F)cc3)[C@H](C)O2)[C@H](C)[C@@H](O[C@@H]2O[C@H](C)C[C@H](N(C)C)[C@H]2O)[C@@](C)(O)C[C@@H](C)CN(C)[C@H](C)[C@@H](O)[C@]1(C)O	4 (≈ 4.44 µM)	0.25 (≈ 0.278 µM)	< 0.03	16 (≈ 17.8 µM)
CC[C@H]1OC(=O)[C@H](C)[C@@H](O[C@H]2C[C@@](C)(OC)[C@@H](OC(=O)NCCc3ccccc3Cl)[C@H](C)O2)[C@H](C)[C@@H](O[C@@H]2O[C@H](C)C[C@H](N(C)C)[C@H]2O)[C@@](C)(O)C[C@@H](C)CN(C)[C@H](C)[C@@H](O)[C@]1(C)O	8 (≈ 8.6 µM)	1 (≈ 1.07 µM)	< 0.03	8 (≈ 8.6 µM)
CC[C@H]1OC(=O)[C@H](C)[C@@H](O[C@H]2C[C@@](C)(OC)[C@@H](OC(=O)NCCc3ccc(O)cc3)[C@H](C)O2)[C@H](C)[C@@H](O[C@@H]2O[C@H](C)C[C@H](N(C)C)[C@H]2O)[C@@](C)(O)C[C@@H](C)CN(C)[C@H](C)[C@@H](O)[C@]1(C)O	4 (≈ 4.39 µM)	0.5 (≈ 0.548 µM)	< 0.03	2 (≈ 2.19 µM)
CC[C@H]1OC(=O)[C@H](C)[C@@H](O[C@H]2C[C@@](C)(OC)[C@@H](OC(=O)NCc3ccccc3)[C@H](C)O2)[C@H](C)[C@@H](O[C@@H]2O[C@H](C)C[C@H](N(C)C)[C@H]2O)[C@@](C)(O)C[C@@H](C)CN(C)[C@H](C)[C@@H](O)[C@]1(C)O	16 (≈ 18.1 µM)	0.06 (≈ 0.068 µM)	< 0.03	64 (≈ 72.6 µM)
C=CCNC(=O)O[C@H]1[C@H](C)O[C@@H](O[C@H]2[C@H](C)[C@@H](O[C@@H]3O[C@H](C)C[C@H](N(C)C)[C@H]3O)[C@@](C)(O)C[C@@H](C)CN(C)[C@H](C)[C@@H](O)[C@](C)(O)[C@@H](CC)OC(=O)[C@@H]2C)C[C@@]1(C)OC	16 (≈ 19.2 µM)	1 (≈ 1.2 µM)	< 0.03	32 (≈ 38.5 µM)
CC[C@H]1OC(=O)[C@H](C)[C@@H](O[C@H]2C[C@@](C)(OC)[C@@H](OC(=O)NCc3ccc(OC)cc3)[C@H](C)O2)[C@H](C)[C@@H](O[C@@H]2O[C@H](C)C[C@H](N(C)C)[C@H]2O)[C@@](C)(O)C[C@@H](C)CN(C)[C@H](C)[C@H]2OC(=O)O[C@@]21C	8 (≈ 8.53 µM)	0.25 (≈ 0.266 µM)	< 0.03	16 (≈ 17.1 µM)
CC[C@H]1OC(=O)[C@H](C)[C@@H](O[C@H]2C[C@@](C)(OC)[C@@H](OC(=O)NCCc3ccccc3)[C@H](C)O2)[C@H](C)[C@@H](O[C@@H]2O[C@H](C)C[C@H](N(C)C)[C@H]2O)[C@@](C)(O)C[C@@H](C)CN(C)[C@H](C)[C@H]2OC(=O)O[C@@]21C	8 (≈ 8.68 µM)	0.06 (≈ 0.0651 µM)	0.06 (≈ 0.0651 µM)	2 (≈ 2.17 µM)
CC[C@H]1OC(=O)[C@H](C)[C@@H](O[C@H]2C[C@@](C)(OC)[C@@H](OC(=O)NC(C)C)[C@H](C)O2)[C@H](C)[C@@H](O[C@@H]2O[C@H](C)C[C@H](N(C)C)[C@H]2O)[C@@](C)(O)C[C@@H](C)CN(C)[C@H](C)[C@@H](O)[C@]1(C)O	128 (≈ 153 µM)	8 (≈ 9.59 µM)	0.12 (≈ 0.144 µM)	256 (≈ 307 µM)
CC[C@H]1OC(=O)[C@H](C)[C@@H](O[C@H]2C[C@@](C)(OC)[C@@H](OC(=O)NCCc3ccc(O)cc3)[C@H](C)O2)[C@H](C)[C@@H](O[C@@H]2O[C@H](C)C[C@H](N(C)C)[C@H]2O)[C@@](C)(O)C[C@@H](C)CN(C)[C@H](C)[C@H]2OC(=O)O[C@@]21C	8 (≈ 8.53 µM)	1 (≈ 1.07 µM)	< 0.03	4 (≈ 4.26 µM)
CC[C@H]1OC(=O)[C@H](C)[C@@H](O[C@H]2C[C@@](C)(OC)[C@@H](OC(=O)NCc3ccc(F)cc3)[C@H](C)O2)[C@H](C)[C@@H](O[C@@H]2O[C@H](C)C[C@H](N(C)C)[C@H]2O)[C@@](C)(O)C[C@@H](C)CN(C)[C@H](C)[C@H]2OC(=O)O[C@@]21C	8 (≈ 8.64 µM)	0.06 (≈ 0.0648 µM)	0.06 (≈ 0.0648 µM)	4 (≈ 4.32 µM)
CC[C@H]1OC(=O)[C@H](C)[C@@H](O[C@H]2C[C@@](C)(OC)[C@@H](OC(=O)NCCc3ccccc3Cl)[C@H](C)O2)[C@H](C)[C@@H](O[C@@H]2O[C@H](C)C[C@H](N(C)C)[C@H]2O)[C@@](C)(O)C[C@@H](C)CN(C)[C@H](C)[C@H]2OC(=O)O[C@@]21C	8 (≈ 8.36 µM)	0.25 (≈ 0.261 µM)	0.06 (≈ 0.0627 µM)	2 (≈ 2.09 µM)
CC[C@H]1OC(=O)[C@H](C)[C@@H](O[C@H]2C[C@@](C)(OC)[C@@H](OC(=O)NCc3ccccc3)[C@H](C)O2)[C@H](C)[C@@H](O[C@@H]2O[C@H](C)C[C@H](N(C)C)[C@H]2O)[C@@](C)(O)C[C@@H](C)CN(C)[C@H](C)[C@H]2OC(=O)O[C@@]21C	8 (≈ 8.81 µM)	0.12 (≈ 0.132 µM)	< 0.03	8 (≈ 8.81 µM)
CC[C@H]1OC(=O)[C@H](C)[C@@H](O[C@H]2C[C@@](C)(OC)[C@@H](OC(=O)NCCc3ccccc3)[C@H](C)O2)[C@H](C)[C@@H](O[C@@H]2O[C@H](C)C[C@H](N(C)C)[C@H]2O)[C@@](C)(O)C[C@@H](C)CN(C)[C@H](C)[C@@H](O)[C@]1(C)O	8 (≈ 8.93 µM)	1 (≈ 1.12 µM)	0.06 (≈ 0.067 µM)	32 (≈ 35.7 µM)
CC[C@H]1OC(=O)[C@H](C)[C@@H](O[C@H]2C[C@@](C)(OC)[C@@H](OC(=O)NCCc3ccc4c(c3)OCO4)[C@H](C)O2)[C@H](C)[C@@H](O[C@@H]2O[C@H](C)C[C@H](N(C)C)[C@H]2O)[C@@](C)(O)C[C@@H](C)CN(C)[C@H](C)[C@@H](O)[C@]1(C)O	8 (≈ 8.51 µM)	0.5 (≈ 0.532 µM)	< 0.03	8 (≈ 8.51 µM)
CCCNC(=O)O[C@H]1[C@H](C)O[C@@H](O[C@H]2[C@H](C)[C@@H](O[C@@H]3O[C@H](C)C[C@H](N(C)C)[C@H]3O)[C@@](C)(O)C[C@@H](C)CN(C)[C@H](C)[C@@H](O)[C@](C)(O)[C@@H](CC)OC(=O)[C@@H]2C)C[C@@]1(C)OC	64 (≈ 76.7 µM)	4 (≈ 4.8 µM)	0.12 (≈ 0.144 µM)	64 (≈ 76.7 µM)
CCCCNC(=O)O[C@H]1[C@H](C)O[C@@H](O[C@H]2[C@H](C)[C@@H](O[C@@H]3O[C@H](C)C[C@H](N(C)C)[C@H]3O)[C@@](C)(O)C[C@@H](C)CN(C)[C@H](C)[C@@H](O)[C@](C)(O)[C@@H](CC)OC(=O)[C@@H]2C)C[C@@]1(C)OC	8 (≈ 9.43 µM)	1 (≈ 1.18 µM)	< 0.03	128 (≈ 151 µM)
CCCCCNC(=O)O[C@H]1[C@H](C)O[C@@H](O[C@H]2[C@H](C)[C@@H](O[C@@H]3O[C@H](C)C[C@H](N(C)C)[C@H]3O)[C@@](C)(O)C[C@@H](C)CN(C)[C@H](C)[C@@H](O)[C@](C)(O)[C@@H](CC)OC(=O)[C@@H]2C)C[C@@]1(C)OC	8 (≈ 9.28 µM)	0.5 (≈ 0.58 µM)	< 0.03	32 (≈ 37.1 µM)
CC[C@H]1OC(=O)[C@H](C)[C@@H](O[C@H]2C[C@@](C)(OC)[C@@H](OC(=O)NC3CCCCC3)[C@H](C)O2)[C@H](C)[C@@H](O[C@@H]2O[C@H](C)C[C@H](N(C)C)[C@H]2O)[C@@](C)(O)C[C@@H](C)CN(C)[C@H](C)[C@@H](O)[C@]1(C)O	32 (≈ 36.6 µM)	8 (≈ 9.15 µM)	0.12 (≈ 0.137 µM)	128 (≈ 146 µM)
CC[C@H]1OC(=O)[C@H](C)[C@@H](O[C@H]2C[C@@](C)(OC)[C@@H](O)[C@H](C)O2)[C@H](C)[C@@H](O[C@@H]2O[C@H](C)C[C@H](N(C)C)[C@H]2O)[C@](C)(O)C[C@@H](C)CN(C)[C@H](C)[C@@H](O)[C@]1(C)O [AZITHROMYCIN]	128 (≈ 171 µM)	4 (≈ 5.34 µM)	< 0.03	256 (≈ 342 µM)
CC[C@H]1OC(=O)[C@H](C)[C@@H](O[C@H]2C[C@@](C)(OC)[C@@H](O)[C@H](C)O2)[C@H](C)[C@@H](O[C@@H]2O[C@H](C)C[C@H](N(C)C)[C@H]2O)[C@](C)(OC)C[C@@H](C)C(=O)[C@H](C)[C@@H](O)[C@]1(C)O [CLARITHROMYCIN]	64 (≈ 85.6 µM)	4 (≈ 5.35 µM)	< 0.03	128 (≈ 171 µM)
